Laboratory results reported in a melting point compilation (Tetko et al.; mined from patent text by program, amines drawn as free bases though some values may be those of a salt).

SMILES | melting point [°C]
COc1ccc(N2CCSC2=N)c([N+](=O)[O-])c1 | 156
C#CCN1CCc2cc(OC)c(O)c3c2C1Cc1cc(OC)c(OC)cc1-3 (configuration not stated) | 135 to 150
C(C#Cc1cccc2ccccc12)#Cc1cccc2ccccc12 | 176 to 177
COC(Cn1cncn1)(OC)c1ccc(Cl)cc1Cl | 87.7
Cc1cc(C=CC(=O)COc2ccc(CC(=O)O)cc2)cc(C)c1O | 151 to 154
CCCC(=O)c1cnc2c(C)cccc2c1Nc1c(C)cccc1C | 100 to 101
CCOc1ccc(N(C)C=C(C#N)C#N)cc1 | 147 to 148
O=C(CC(=O)C1CC1)c1cnc2ccccc2n1 | 113 to 115
O=Cc1ccccc1-c1ccc(CBr)cc1 | 63 to 66
CN1C(=O)N=C(NCc2ccccc2)C1=O | 152 to 154
Cc1cc(Oc2ccc(N)cc2)c2cc3c(cc2n1)OCO3 | 251 to 253
COc1ccc(-c2cc(C(=O)Nc3cccc(F)n3)c3ccccc3n2)cc1 | 174 to 176
CCOC(=O)c1nccc(Oc2ccc3c(C(=O)O)cccc3c2)n1 | 214 to 217
c1n[nH]c2c1Cc1[nH]ncc1-2 | 180
NC(=O)C1=C(C(=O)Nc2ccc(Cl)cc2F)CCCC1 | 150 to 151
COc1ccc2[nH]c(S(=O)Cc3c(N)cc(C)c(OC)c3C)nc2c1 (configuration not stated) | 149 to 155
CCOC(=O)c1cc(C#N)c(C)nc1NC(C)CC (configuration not stated) | 55 to 57
COc1ccc(S(=O)(=O)N2CCc3cccc(-c4ccccc4)c32)cc1 | 166 to 168
CC1(C)CC(C2CCC(O)CC2)CC(C)(C)N1 (configuration not stated) | 145 to 150
COCCNC(=O)c1ccnc(-c2cccc3cc(Cc4cccc(C(F)(F)F)c4)sc23)c1 | 108 to 109
NCC1(CC(=O)O)CCCCCC1 | 180
CN1CCN(c2ccc(Nc3ncc4c(n3)S/C(=C/c3ccc(F)cc3)C(=O)N4)cc2)CC1 | 172 to 175
CC(=O)NC[C@H]1CN(c2ccc(N3CCC4(CC3)NCCS4)c(F)c2)C(=O)O1 | 150 to 152
CC(=O)Nc1ccc2nc(-c3cc(C)c(OCCO)c(C)c3)[nH]c(=O)c2c1 | > 300
N#Cc1ccc(N2CCN(Cc3cn4cc(Cl)ccc4n3)CC2)c(Cl)c1 | 137 to 138
COC(=O)C=CC1=C(N)CCC1=O | 278 to 279

SMILES | melting point [°C]
O=C(CS(=O)(=O)c1cccs1)C12CC3CC(CC(C3)C1)C2 | 118 to 119
COc1cc2c(cc1C)CCN=C2C1(c2ccco2)CC1 | 98 to 100
COC(=O)c1c(Cn2cncn2)nc2cc(OC)c(OC)cc2c1-c1ccc(OC)c(OC)c1 | 218 to 220
CCOC(=O)c1cnc2nn(C)cc2c1NC(C)C | 168 to 170
CC(C)(C)OC(=O)c1ncn2c1[C@@H]1CCN1C(=O)c1c(Cl)cccc1-2 | 235 to 236
NCc1ccc(CC(N)=O)cc1 | 138 to 140
CN(C)c1ccc(C(=O)C(F)(F)c2cccc(Cl)c2)cc1 | 104 to 108
CC(C)CC(NC(=O)CCc1ccccc1)C(=O)N[C@@H](Cc1ccccc1)C(=O)CSCc1ccco1 (some centres not stated) | 117 to 119
O=C(Nc1ccc(C(=O)NCCCN2CCOCC2)cc1O)C(=O)Nc1cc(Cl)cc(Cl)c1O | 227
CC(=O)OC1CSC(Oc2cncc(I)c2)C(OC(C)=O)C1OC(C)=O (configuration not stated) | 148 to 150
O=C(CCc1ccccc1)N1C(=O)OC[C@@H]1Cc1ccccc1 | 92 to 95
CC(C)OC(=O)c1ccc2c(c1)ncn2-c1cccc(-c2cccnc2Cl)c1 | 147 to 150
CCCCOC(=O)COc1cc(F)c([N+](=O)[O-])cc1[N+](=O)[O-] | 113 to 115
CC(C)c1nc(-c2cccc3c2OCO3)cc(-c2ccc(F)cc2)c1C=C(Br)Br | 129 to 131
COc1cc(Nc2c(C#N)cnc3cc(/C=C/C(=O)N4CCN(C)CC4)sc23)c(Cl)cc1Cl | 218 to 220
O=C1CCCN(C(=O)Cc2ccccc2)C(=O)CCc2cc(Cl)ccc21 | 178 to 180
CC1(C)OC(=O)C(Cc2c[nH]c3ccc(Br)cc23)C(=O)O1 | 179 to 181
CS(=O)c1c2ccccc2c(C=O)c2ccccc12 (configuration not stated) | 182 to 184
O=C1c2c(c(=O)n3nc(-c4ccccc4)cc3n2Cc2ccccc2)CN1Cc1ccccc1 | 232 to 234
CCN(C(=O)OC)c1cccc(-c2ccc3nnc(C)n3n2)c1 | 176 to 178
CC(=O)c1cnccc1NC(=O)C(C)(C)C | 95
c1ccc(C(=NOC(=NC2CCCCC2)NC2CCCCC2)c2ccccc2)cc1 | 104 to 107
CCC(O)(c1ccc(O)cc1O)c1ccccc1C(F)(F)F (configuration not stated) | 143 to 144
COc1cc(CCC=CC(=O)CCC(=O)O)cc(OC)c1OC | 187 to 189
COc1cc(C2CCCCC2)ccc1C(=O)CCC(=O)O | 130 to 131
Cc1c(C)c(Cl)c(C(=O)c2ccccc2)c(C)c1Cl | 105 to 107
